How the values were obtained:
[1] = molecular target: T1, Rat KMO (Rattus norvegicus, UniProt O88867); test: Rat KMO enzyme (cell-free) assay, NADPH consumption by absorbance; format: biochemical
T1 construct: The GST-tagged full-length KMO (1-478) baculovirus vector contained a thrombin cleavage site; GST (thrombin cleavage site between GST and KMO) (N, cleaved yes); made in house; host or cells: Spodoptera frugiperda (Sf9), baculovirus
Outline: (§1)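 Recombinant human KMO or purified full-length rat KMO, pre-incubated 5 min with compound in HEPES buffer pH ~7.9 with MgCl2, EGTA, DTT, Tween20. Substrate mix of 2.4 mM kynurenine and 0.6 mM NADPH (solution concentrations) added; 90 min at 30 °C. Stopped with maleimide, then WST-9/1-methoxy-PMS colour read-out.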

[2] = molecular target: T2, HEK293 cells stably expressing rat KMO (Rattus norvegicus, UniProt O88867); test: Cell-based rat KMO inhibition assay (LC/MS of 3-hydroxykynurenine)
T2 construct: expressed in transfected cells
Outline: (§2)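 HEK293 lines stably expressing human or rat KMO, pre-incubated ~30 min at 37 °C with compound (final 0–30 μM, 0.3% DMSO) in HBSS/20 mM HEPES. Then 2 h at 37 °C with 0.2 mM kynurenine (solution concentration). 3-Hydroxykynurenine in cell extracts quantified by LC-MS/MS, positive ESI.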

[3] = molecular target: T3, HEK293 cells stably expressing human KMO (Homo sapiens, UniProt O15229); test: Cell-based human KMO inhibition assay (LC/MS of 3-hydroxykynurenine)
T3 construct: expressed in transfected cells
Outline: as §2

[4] = molecular target: T4, hKMO (Homo sapiens, UniProt O15229); test: Human KMO enzyme (cell-free) assay, NADPH consumption by absorbance; format: biochemical
T4 construct: purchased Origene
Outline: as §1

T2 sequence (O88867 whole entry): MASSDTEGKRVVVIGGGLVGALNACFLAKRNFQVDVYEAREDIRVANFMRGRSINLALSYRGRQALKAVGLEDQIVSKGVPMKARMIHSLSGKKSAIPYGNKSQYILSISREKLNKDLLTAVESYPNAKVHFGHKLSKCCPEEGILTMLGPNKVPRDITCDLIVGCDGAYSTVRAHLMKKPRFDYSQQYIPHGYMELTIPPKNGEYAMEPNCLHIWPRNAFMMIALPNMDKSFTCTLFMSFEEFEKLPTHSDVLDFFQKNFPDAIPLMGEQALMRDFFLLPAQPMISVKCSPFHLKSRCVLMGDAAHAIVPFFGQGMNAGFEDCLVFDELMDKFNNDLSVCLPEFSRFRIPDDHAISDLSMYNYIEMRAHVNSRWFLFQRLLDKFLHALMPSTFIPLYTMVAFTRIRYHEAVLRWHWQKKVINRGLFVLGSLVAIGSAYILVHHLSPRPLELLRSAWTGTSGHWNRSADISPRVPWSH
T1 sequence (O88867 whole entry): as above
T4 sequence (O15229 whole entry): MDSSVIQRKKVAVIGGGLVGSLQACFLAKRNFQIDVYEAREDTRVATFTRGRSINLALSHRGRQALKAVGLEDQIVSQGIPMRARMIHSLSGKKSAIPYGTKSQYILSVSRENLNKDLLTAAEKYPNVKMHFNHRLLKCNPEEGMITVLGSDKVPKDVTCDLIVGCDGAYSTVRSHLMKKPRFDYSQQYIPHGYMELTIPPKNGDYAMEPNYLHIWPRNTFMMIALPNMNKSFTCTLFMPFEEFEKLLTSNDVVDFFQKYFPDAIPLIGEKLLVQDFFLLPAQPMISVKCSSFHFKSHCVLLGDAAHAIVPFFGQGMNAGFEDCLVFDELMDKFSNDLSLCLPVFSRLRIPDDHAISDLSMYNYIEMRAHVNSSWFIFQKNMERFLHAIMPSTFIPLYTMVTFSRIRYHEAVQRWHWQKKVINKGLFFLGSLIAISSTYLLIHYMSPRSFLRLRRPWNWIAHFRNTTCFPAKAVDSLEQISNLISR
T3 sequence (O15229 whole entry): as above

SMILES: Cc1cnn(-c2ccc(OCc3ccccc3)c(C(=O)O)c2)c1-c1ccc(Cl)c(F)c1 [Compound 3]
- IC50 ([1]; cell-free enzyme assay, high kynurenine): 0.009 µM
- inhibition rate, Rat-KMO cell-free assay (Figure 1B source data) ([1]; conc 0.0003 μM, duplicates): 0.623%
- inhibition at 0.0003 µM ([1]; conc 0.0003 μM, duplicates, read-out: inhibition rate, Rat-KMO cell-free assay (Figure 1B source data)): 0.676%
- inhibition rate, Rat-KMO cell-free assay (Figure 1B source data) ([1]; conc 0.001 μM, duplicates): 5.077%
- inhibition at 0.001 µM ([1]; conc 0.001 μM, duplicates, read-out: inhibition rate, Rat-KMO cell-free assay (Figure 1B source data)): 6.43%
- inhibition rate, Rat-KMO cell-free assay (Figure 1B source data) ([1]; conc 0.003 μM, duplicates): 23.289%
- inhibition at 0.003 µM ([1]; conc 0.003 μM, duplicates, read-out: inhibition rate, Rat-KMO cell-free assay (Figure 1B source data)): 23.8%
- inhibition rate, Rat-KMO cell-free assay (Figure 1B source data) ([1]; conc 0.01 μM, duplicates): 55.764%
- inhibition at 0.01 µM ([1]; conc 0.01 μM, duplicates, read-out: inhibition rate, Rat-KMO cell-free assay (Figure 1B source data)): 56.6%
- inhibition rate, Rat-KMO cell-free assay (Figure 1B source data) ([1]; conc 0.03 μM, duplicates): 81.294%
- inhibition at 0.03 µM ([1]; conc 0.03 μM, duplicates, read-out: inhibition rate, Rat-KMO cell-free assay (Figure 1B source data)): 81.3%
- inhibition rate, Rat-KMO cell-free assay (Figure 1B source data) ([1]; conc 0.1 μM, duplicates): 84.395%
- inhibition at 0.1 µM ([1]; conc 0.1 μM, duplicates, read-out: inhibition rate, Rat-KMO cell-free assay (Figure 1B source data)): 83.1%
- inhibition rate, Rat-KMO cell-free assay (Figure 1B source data) ([1]; conc 0.3 μM, duplicates): 91.102%
- inhibition at 0.3 µM ([1]; conc 0.3 μM, duplicates, read-out: inhibition rate, Rat-KMO cell-free assay (Figure 1B source data)): 92.2%
- inhibition rate, Rat-KMO cell-free assay (Figure 1B source data) ([1]; conc 1 μM, duplicates): 84.342%
- inhibition at 1 µM ([1]; conc 1 μM, duplicates, read-out: inhibition rate, Rat-KMO cell-free assay (Figure 1B source data)): 88.8%
- inhibition at 0.3 µM ([2]; HEK293, conc 0.3 μM, duplicates, read-out: inhibition rate, Rat-KMO cellular assay (Figure 1D source data)): 62%
- inhibition at 1 µM ([2]; HEK293, conc 1 μM, duplicates, read-out: inhibition rate, Rat-KMO cellular assay (Figure 1D source data)): 91.7%
- inhibition at 3 µM ([2]; HEK293, conc 3 μM, duplicates, read-out: inhibition rate, Rat-KMO cellular assay (Figure 1D source data)): 97.7%
- inhibition at 10 µM ([2]; HEK293, conc 10 μM, duplicates, read-out: inhibition rate, Rat-KMO cellular assay (Figure 1D source data)): 100%
- inhibition at 30 µM ([2]; HEK293, conc 30 μM, duplicates, read-out: inhibition rate, Rat-KMO cellular assay (Figure 1D source data)): 100%
- IC50 ([2]; HEK293 cells expressing rat KMO, LC/MS): 0.24 µM
- inhibition rate, Rat-KMO cellular assay (Figure 1D source data) ([2]; conc 0.3 μM, duplicates): 48.933%
- inhibition rate, Rat-KMO cellular assay (Figure 1D source data) ([2]; conc 1 μM, duplicates): 83.933%
- inhibition rate, Rat-KMO cellular assay (Figure 1D source data) ([2]; conc 3 μM, duplicates): 95.840%
- inhibition rate, Rat-KMO cellular assay (Figure 1D source data) ([2]; conc 10 μM, duplicates): 99.692%
- inhibition rate, Rat-KMO cellular assay (Figure 1D source data) ([2]; conc 30 μM, duplicates): 100.882%
- inhibition at 0.0003 µM ([3]; HEK293, conc 0.0003 μM, duplicates, read-out: inhibition rate, Hs-KMO cellular assay (Figure 1C source data)): 6.79%
- inhibition at 0.001 µM ([3]; HEK293, conc 0.001 μM, duplicates, read-out: inhibition rate, Hs-KMO cellular assay (Figure 1C source data)): 11%
- inhibition at 0.003 µM ([3]; HEK293, conc 0.003 μM, duplicates, read-out: inhibition rate, Hs-KMO cellular assay (Figure 1C source data)): 12.3%
- inhibition at 0.01 µM ([3]; HEK293, conc 0.01 μM, duplicates, read-out: inhibition rate, Hs-KMO cellular assay (Figure 1C source data)): 32.5%
- inhibition at 0.03 µM ([3]; HEK293, conc 0.03 μM, duplicates, read-out: inhibition rate, Hs-KMO cellular assay (Figure 1C source data)): 100%
- inhibition at 0.1 µM ([3]; HEK293, conc 0.1 μM, duplicates, read-out: inhibition rate, Hs-KMO cellular assay (Figure 1C source data)): 104%
- inhibition at 0.3 µM ([3]; HEK293, conc 0.3 μM, duplicates, read-out: inhibition rate, Hs-KMO cellular assay (Figure 1C source data)): 105%
- IC50 ([3]; HEK293 cells expressing human KMO, LC/MS, read-out: Human cell-based assay IC50): 0.012 µM
- inhibition rate, Hs-KMO cellular assay (Figure 1C source data) ([3]; conc 0.0003 μM, duplicates): 4.270%
- inhibition rate, Hs-KMO cellular assay (Figure 1C source data) ([3]; conc 0.001 μM, duplicates): 10.835%
- inhibition rate, Hs-KMO cellular assay (Figure 1C source data) ([3]; conc 0.003 μM, duplicates): 13.039%
- inhibition rate, Hs-KMO cellular assay (Figure 1C source data) ([3]; conc 0.01 μM, duplicates): 26.636%
- inhibition rate, Hs-KMO cellular assay (Figure 1C source data) ([3]; conc 0.03 μM, duplicates): 98.487%
- inhibition rate, Hs-KMO cellular assay (Figure 1C source data) ([3]; conc 0.1 μM, duplicates): 104.397%
- IC50 ([4]; cell-free enzyme assay, high kynurenine, read-out: Human KMO IC50): 0.0038 µM
- inhibition rate, Hs-KMO cell-free assay (Figure 1A source data) ([4]; conc 0.0003 μM, duplicates): 2.492%
- inhibition at 0.0003 µM ([4]; conc 0.0003 μM, duplicates, read-out: inhibition rate, Hs-KMO cell-free assay (Figure 1A source data)): 4.34%
- inhibition rate, Hs-KMO cell-free assay (Figure 1A source data) ([4]; conc 0.001 μM, duplicates): 10.698%
- inhibition at 0.001 µM ([4]; conc 0.001 μM, duplicates, read-out: inhibition rate, Hs-KMO cell-free assay (Figure 1A source data)): 11%
- inhibition rate, Hs-KMO cell-free assay (Figure 1A source data) ([4]; conc 0.003 μM, duplicates): 34.671%
- inhibition at 0.003 µM ([4]; conc 0.003 μM, duplicates, read-out: inhibition rate, Hs-KMO cell-free assay (Figure 1A source data)): 36%
- inhibition rate, Hs-KMO cell-free assay (Figure 1A source data) ([4]; conc 0.01 μM, duplicates): 91.745%
- inhibition at 0.01 µM ([4]; conc 0.01 μM, duplicates, read-out: inhibition rate, Hs-KMO cell-free assay (Figure 1A source data)): 91.2%
- inhibition rate, Hs-KMO cell-free assay (Figure 1A source data) ([4]; conc 0.03 μM, duplicates): 101.827%
- inhibition at 0.03 µM ([4]; conc 0.03 μM, duplicates, read-out: inhibition rate, Hs-KMO cell-free assay (Figure 1A source data)): 102%
- inhibition rate, Hs-KMO cell-free assay (Figure 1A source data) ([4]; conc 0.1 μM, duplicates): 97.991%
- inhibition at 0.1 µM ([4]; conc 0.1 μM, duplicates, read-out: inhibition rate, Hs-KMO cell-free assay (Figure 1A source data)): 98.8%
- inhibition rate, Hs-KMO cell-free assay (Figure 1A source data) ([4]; conc 0.3 μM, duplicates): 101.967%
- inhibition at 0.3 µM ([4]; conc 0.3 μM, duplicates, read-out: inhibition rate, Hs-KMO cell-free assay (Figure 1A source data)): 103%
- inhibition rate, Hs-KMO cell-free assay (Figure 1A source data) ([4]; conc 1 μM, duplicates): 95.974%
- inhibition at 1 µM ([4]; conc 1 μM, duplicates, read-out: inhibition rate, Hs-KMO cell-free assay (Figure 1A source data)): 103%

Source: article PMC7862291, “Full-length in meso structure and mechanism of rat kynurenine 3-monooxygenase inhibition” (Communications Biology, 2021)
